Data set [1] relates to human ESCs. Kind of data set: mRNA-Seq of H9 hESCs treated with coronatine. The format is cell-based. The note with it: H9 cells, 50 μM coronatine, 2 days.
Data set [2] deals with human ESCs. Put plainly: Proliferation of H9 ESCs under coronatine (growth curves). The note with it: H9 cells expressing pJAZ NLS-GFP-OsJAZ^33, 50 μM coronatine vs 0.1% DMSO, counted daily. The format is cell-based. The text has this: FIG. 10A is a sequence alignment of O. sativa coronatine-degradable proteins (Tan et al., “Mechanism of Auxin Perception by the TIR1 Ubiquitin Ligase,” Nature 446:640-645 (2007), which is hereby incorporated by reference in its entirety) OsJAZ1 (NP_001064513.1; SEQ ID NO: 4), OsJAZ2 (NP_001049167.1; SEQ ID NO: 5), OsJAZ7 (NP_001063273.1; SEQ ID NO: 6), OsJAZ3 (NP_001049166.1; SEQ ID NO: 7), and A. thaliana AtJAZ1 (NP_564075; SEQ ID NO: 8). Degron sequences used in this study are highlighted and degron names indicated on the right. […] GFP level was analyzed by flow cytometry and % degradation was calculated as described in the Methods. […] FIG. 10F show GFP fluorescence histograms derived from flow cytometric analysis of HEK-293T cells infected with the indicated pJAZ versions, selected and treated with either 0.1% DMSO (“Con”) or 50 μM coronatine (“Cor”). Parental HEK-293T cells were analyzed as a control for background autofluorescence. […] FIG. 10H show the relative median fluorescence of HEK-293T cells infected with pJAZ 7 harboring either GFP-OsJAZ^33 or NLS-GFP-OsJAZ^33. Cells were selected and treated with increasing concentrations of coronatine (“Cor”) and analyzed after 24 hours (left panel), or with 50 μM coronatine for the indicated time periods (right panel). GFP fluorescence was analyzed by flow cytometry. […] Cells were counted daily and growth curves are plotted in FIG. 10K. […]

As to `CC[C@H]1C=C(C(=O)N[C@@]2(C(=O)O)C[C@@H]2CC)[C@H]2CCC(=O)[C@H]2C1` [coronatine, Coronatine], in the data set on human ESCs [1] (mRNA-Seq), the “effect on global gene expression patterns” value is given as “does not affect global gene expression patterns”. In addition, the “genes with differential expression between coronatine and control samples” value with human ESCs [1] (P<0.05 and fold change >2 in both replicates) is “only two genes”. Also, the effect on proliferation result with human ESCs [2] is given as “does not affect proliferation”.

The values are drawn from patent US11078496B2, “System for F-box hormone receptor regulated protein expression in mammalian cells” (ICAHN SCHOOL OF MEDICINE AT MOUNT SINAI, priority 2016, dated 2021).
